# Results from patent publication US20260193227A1, “THERAPEUTIC COMPOUNDS AND METHODS” (UNIVERSITY OF IOWA RESEARCH FOUNDATION, priority 2022, published 2026).
# What was measured:
# [1] = system: EUFA423F and EUFA423F HA cells; experiment: Clonogenic survival assay; assay type: cell-based, human; conditions: cells pre-treated 72 hours, colonies after 8 days
# Description: (§1) Cell lines: EUFA423F cells that are derived from a Fanconi Anemia patient with complementation group D1 and have biallelic mutations (7691 insAT and 9900 insA) in BRCA2 that result in two different truncated forms of BRCA2 (Howlett N G, et al., Science (New York, NY). 2002; 297(5581):606-9) and its counterpart complemented with expression vector for full-length BRCA2 (EUFA HA) were a generous gift from Dr. Simon Powell, Molecular Biology Program, Radiation Oncology, Sloan-Kettering Cancer Center, New York, NY).
# Cell proliferation assay: Selective toxicity of the compounds towards human BRCA2 deficient cells was tested in EUFA423F and its complement EUFA423F HA using CellTiter-Glo® Luminescent Cell Viability Assay (Promega, Madison, WI). […] Post treatment, the cells were washed, treated with the CellTiter-Glo® reagent was added and the plate was analyzed as using a Gen5 (ver2.1) luminosity plate reader. The luminescence that reports on ATP generation by the surviving cells was normalized for the DMSO treated control as 100%. The normalized luminescence (average±standard deviation for at least three independent measurements obtained with different cell passages) was plotted in GraphPad Prism as a function of compound concentration. […] A colony had to contain at least 50 cells to be counted. […]
# EUFA423F HA cells = experiment: CellTiter-Glo cell viability, BRCA2-complemented cells; assay type: cell-based, human; conditions: yes/no
# Description: as §1
# Cell proliferation assay: Selective toxicity of the compounds towards human BRCA2 deficient cells was tested in EUFA423F and its complement EUFA423F HA using CellTiter-Glo® Luminescent Cell Viability Assay (Promega, Madison, WI). The cell lines were maintained in DMEM (Gibco/ThermoFisher Scientific, Waltham, MA) supplemented with 10% FBS and 10 mM HEPES (Gibco/ThermoFisher Scientific, Waltham, MA). EUFA423F HA cells were routinely supplemented with G418 in order to maintain the BRCA2 expression plasmid. Both cell lines were seeded in sterile tissue culture treated, white opaque 384-well plates (Perkin Elmer Inc., Waltham, MA) 3000 cells/well for EUFA423F HA and 2500 cells/well for EUFA423F) and allowed to adhere for 24 hours. Compounds dissolved in DMSO were added in the concentration range of 0-100 μM. Controls were treated with equivalent DMSO volumes. The cells were treated with compounds for 72 hours (to ensure that all cells experienced at least two S-phases). Post treatment, the cells were washed, treated with the CellTiter-Glo® reagent was added and the plate was analyzed as using a Gen5 (ver2.1) luminosity plate reader. The luminescence that reports on ATP generation by the surviving cells was normalized for the DMSO treated control as 100%. The normalized luminescence (average±standard deviation for at least three independent measurements obtained with different cell passages) was plotted in GraphPad Prism as a function of compound concentration. Clonogenic Survival: EUFA423F and EUFA423F HA cells were seeded in a 96 well plate. Compounds dissolved in DMSO were added to final concentrations of 0, 50, and 100 μM for the compound of Example 8 and the compound of Example 1, and 0, 5, and 10 μM for the compounds of Examples 2-7. The cells were treated with compounds for 72 hours. Post treatment, cell cultures were harvested by collecting all non-adherent cells in the well, trypsinization of all adherent cells, combining, pelleting and then resuspending in fresh media. Cultures treated with DMSO only were subsequently counted using a hemocytometer and plated at a density of 2000, 200 and 20 cells per well in 6-well culture plates, equal volumes of cultures were plated each inhibitor concentration. Each treatment and cell density conditions for both cell lines were plated in triplicate. After expanding the colonies for a period of 8 days, cultures were fixed with a solution of 70% ethanol and crystal violet for clonogenic survival analysis. Pictures of individual wells were taken using GelCount (Version 1.3.0.4) by Oxford Optronix (Abingdon UK). A colony had to contain at least 50 cells to be counted. The number of surviving colonies following treatment are presented as a percentage of number of colonies in the experiment where the cells were treated with DMSO only.
Compound,clonogenic survival: confirmation of effect on cell viability [1],toxicity towards EUFA423 HA (BRCA2-complemented cells) (EUFA423F HA cells)
COc1ccccc1NS(=O)(=O)c1cc(C(=O)O)ccc1C [Example 8],confirmed,no
O=C(Cn1cccc([N+](=O)[O-])c1=O)c1c[nH]c2ccccc12 [Example 1],confirmed,yes
